Test results published in paper PMC11769294, “(E)-1-(3-(3-Hydroxy-4-Methoxyphenyl)-1-(3,4,5-Trimethoxyphenyl)allyl)-1H-1,2,4-Triazole and Related Compounds: Their Synthesis and Biological Evaluation as Novel Antimitotic Agents Targeting Breast Cancer” (Pharmaceuticals, 2025).
Read-outs that look alike come from different tables or passages of the source.

Tests used:
[1] = tested on: MCF-7 breast cancer cells; assay: alamarBlue cell viability assay; assay type: cell-based; conditions: Homo sapiens, MCF7, MCF-7
Procedure: Figure 5 Preliminary cell viability data for Series 1: (A) compounds 22a–22g and chalcone 20b and Series 2: (B) compounds 23a–e and chalcone 20b in MCF-7 breast cancer cells. Cell proliferation of MCF-7 cells was determined with an alamarBlue assay (seeding density 2.5 × 10^4 cells/mL per well for 96-well plates). Compound concentrations of either 1 or 0.1 μM for 72 h were used to treat the cells (in triplicate) with control wells containing vehicle ethanol (1% v/v). The mean value ± SEM for three independent experiments is shown. The positive controls used are CA-4 and phenstatin (1.0 μM and 0.1 μM). Statistical analysis was performed using One-way ANOVA with the Sidak multiple comparison test (***, p < 0.001).
HL-60 cells were suspension cells and the seeding density for the viability assay was 25,000 cells/mL. MCF-7 cells (adherent) were cultured in Minimum Essential Media (MEM) with GlutaMAX™-I, supplemented with 1% (v/v) non-essential amino acids, 10% (v/v) fetal bovine serum (FBS), purchased from BD Biosciences (Edmund Halley Road, Oxford, UK), and 1% (v/v) penicillin/streptomycin 5000 U/mL. The MCF-7 cells used in the screening of the compounds during these experiments were mycoplasma-free. The seeding density of MCF-7 in the viability assay was 25,000 cells/mL and 50,000 cells/mL in the FACS assay. Normal breast cells (MCF-10A) (adherent) were cultured in Dulbecco’s Modified Eagle Medium: Nutrient Mixture F-12 (DMEM/F12; Gibco) supplemented with 5% horse serum (Invitrogen, Waltham, MA, USA), 20 ng/mL epidermal growth factor (Merck Millipore, Burlington, MA, USA), 0.5 μg/mL hydrocortisone (Sigma, Kanagawa, Japan), 100 ng/mL cholera toxin (Sigma), 10 μg/mL insulin (Sigma), and penicillin/streptomycin 5000 U/mL (1%) (Gibco, Waltham, MA, USA). […] MDA-MB-231 cells were cultured in Dulbecco’s Modified Eagle Medium, which was supplemented with 10% (v/v) fetal bovine serum (FBS) and 1% (v/v) penicillin/streptomycin 5000 U/mL. When not in use, all cells were kept in liquid nitrogen and frozen in a freezing media made of 90% FBS and 10% DMSO. All cells were grown in an atmosphere of 5% CO2/95% air in T75 culture flasks. The media was changed every 2–3 days and media was always prewarmed to 37 °C. All were sub-cultured every 3–4 days by trypsinization using TrypLE™ Express enzyme when confluence was reached to allow growth, prevent excessive cell death, and minimize the risk of infections derived by over-confluence. For the cell viability assay, the number of cells per milliliter was 25,000 cells/mL while the FACS assay utilized 50,000 cells/mL. Cells were maintained at 37 °C in 5% CO2 in a humidified incubator.
The biochemical assays were performed in triplicate and on at least three independent occasions to facilitate the determination of mean values. For the viability assay, cells were grown until 80% confluent. Adherent cells such as MCF-7, MDA-MB-231, and MCF-10A were trypsinized to detach them from the flask, counted as previously described, and seeded in 96 well plates with a seeding density of 25,000 cells /mL (200 µL of suspension in each well so that the final number of cells per well was 5000) and 1 × 10^4 cells/well seeding density for suspension HL-60 cells. Adherent cells were incubated for 24 h after being seeded in the 96 well plate and treated on the following day, while suspension cells were treated on the same day of the seeding. In both cases, the incubation time after the treatment with the drug was 72 h. After 68 h incubation, the AlamarBlue was added (20 µL in each well) and the incubation time was completed. After 72 h, the change in color was measured by spectrofluorimetry at an excitation wavelength of 544 nm and emission wavelength of 590 nm. AlamarBlue is a cell viability indicator containing a compound called resazurin. AlamarBlue is water soluble, stable in culture media, non-toxic, and is permeable through the cell membrane. […]

[2] = tested on: HL-60 (TB) (Leukemia); assay: NCI60 screen (SRB); assay type: cell-based, human; conditions: for growth percent: HL-60 (TB), one dose 10 µM; for GI50: HL-60(TB), five-dose
[3] = tested on: EKVX (Non-Small Cell Lung Cancer); assay: NCI60 screen (SRB); assay type: cell-based, human; conditions: 48 h; for growth percent: one dose 10 µM
[4] = tested on: NCI-H226 (Non-Small Cell Lung Cancer); assay: NCI60 screen (SRB); assay type: cell-based, human; conditions: 48 h; for growth percent: one dose 10 µM
[5] = tested on: NCI-H23 (Non-Small Cell Lung Cancer); assay: NCI60 screen (SRB); assay type: cell-based, human; conditions: 48 h; for growth percent: one dose 10 µM
[6] = tested on: NCI-H322M (Non-Small Cell Lung Cancer); assay: NCI60 screen (SRB); assay type: cell-based, human; conditions: 48 h; for growth percent: one dose 10 µM
[7] = tested on: NCI-H460 (Non-Small Cell Lung Cancer); assay: NCI60 screen (SRB); assay type: cell-based, human; conditions: for growth percent: one dose 10 µM; for GI50: five-dose
[8] = tested on: SF-295 (CNS Cancer); assay: NCI60 screen (SRB); assay type: cell-based, human; conditions: 48 h; for growth percent: one dose 10 µM
[9] = tested on: SF-539 (CNS Cancer); assay: NCI60 screen (SRB); assay type: cell-based, human; conditions: 48 h; for growth percent: one dose 10 µM
[10] = tested on: LOX IMVI (Melanoma); assay: NCI60 screen (SRB); assay type: cell-based, human; conditions: 48 h; for growth percent: one dose 10 µM
[11] = tested on: SK-MEL-28 (Melanoma); assay: NCI60 screen (SRB); assay type: cell-based, human; conditions: 48 h; for growth percent: one dose 10 µM
[12] = tested on: OVCAR-3 (Ovarian Cancer); assay: NCI60 screen (SRB); assay type: cell-based, human; conditions: 48 h; for growth percent: one dose 10 µM
[13] = tested on: OVCAR-5 (Ovarian Cancer); assay: NCI60 screen (SRB); assay type: cell-based, human; conditions: 48 h; for growth percent: one dose 10 µM
[14] = tested on: RXF 393 (Renal Cancer); assay: NCI60 screen (SRB); assay type: cell-based, human; conditions: 48 h; for growth percent: one dose 10 µM
[15] = tested on: SN12C (Renal Cancer); assay: NCI60 screen (SRB); assay type: cell-based, human; conditions: 48 h; for growth percent: one dose 10 µM
[16] = tested on: TK-10 (Renal Cancer); assay: NCI60 screen (SRB); assay type: cell-based, human; conditions: 48 h; for growth percent: one dose 10 µM
[17] = tested on: UO-31 (Renal Cancer); assay: NCI60 screen (SRB); assay type: cell-based, human; conditions: 48 h; for growth percent: one dose 10 µM
[18] = tested on: BT-549 (Breast Cancer); assay: NCI60 screen (SRB); assay type: cell-based, human; conditions: for growth percent: one dose 10 µM; for GI50: five-dose
[19] = Homo sapiens, five-dose, read-out: IC50 (cell marked * in GI50 column)

`COc1ccc(/C=C/C(c2cc(OC)c(OC)c(OC)c2)n2cncn2)cc1` (stereo not shown) [Compound 22a, (E)-1-(3-(4-Methoxyphenyl)-1-(3,4,5-trimethoxyphenyl)allyl)-1H-1,2,4-triazole] gave a viability at 1 µM ([1]; 72 h, read-out: viable cells) of 60%, a growth percent ([2]; 48 h) of −17.94% and a growth percent [3] of 66.04%. It also gave a growth percent [4] of 75.97%, a growth percent [5] of 67.01% and a growth percent [6] of 61.24%. The growth percent ([7]; 48 h) was 22.14%, the growth percent [8] was 22.52% and the growth percent [9] was 56.52%. The growth percent [10] was 49.98%, the growth percent [11] was 62.59% and the growth percent [12] was 9.06%. For the same molecule, the growth percent [13] was 90.16%, the growth percent [14] was 46.51% and the growth percent [15] was 62.02%. The growth percent [16] was 48.52%, the growth percent [17] was 64.39% and the growth percent ([18]; 48 h) was 45.45%.
In the case of `COc1cc(/C=C/C(/C=C/c2cc(OC)c(OC)c(OC)c2)n2ccnc2)cc(OC)c1OC` [Compound 30, 1-((1E,4E)-1,5-bis(3,4,5-trimethoxyphenyl)penta-1,4-dien-3-yl)-1H-imidazole], the viability at 1 µM ([1]; 72 h, read-out: viable cells) is reported as 77%, the growth percent ([2]; 48 h) is reported as 70.60% and the growth percent [3] is reported as 94.43%. For the same molecule, the growth percent [4] was 84.81%, the growth percent [5] was 81.16% and the growth percent [6] was 96.68%. It also gave a growth percent ([7]; 48 h) of 93.96%, a growth percent [8] of 95.73% and a growth percent [9] of 93.55%. The growth percent [10] was 85.14%, the growth percent [11] was 100.52% and the growth percent [12] was 83.41%. It also gave a growth percent [13] of 129.83%, a growth percent [14] of 88.15% and a growth percent [15] of 84.52%. For the same molecule, the growth percent [16] was 115.50%, the growth percent [17] was 66.56% and the growth percent ([18]; 48 h) was 83.42%.
Molecule `COc1ccc(/C=C/C(c2cc(OC)c(OC)c(OC)c2)n2ccnc2)cc1O` (stereo not shown) [Compound 23b, (E)-5-(3-(1H-Imidazol-1-yl)-3-(3,4,5-trimethoxyphenyl)prop-1-en-1-yl)-2-methoxyphenol] has a viability at 0.1 µM ([1]; 0.1 μM, 72 h, read-out: viable cells) of 75%, a viability at 1 µM ([1]; 72 h, read-out: viable cells) of 74% and a growth percent ([2]; 48 h) of −36.59%. For the same molecule, the growth percent [3] was 81.22%, the growth percent [4] was 88.36% and the growth percent [5] was 55.69%. It also gave a growth percent [6] of 45.84%, a growth percent ([7]; 48 h) of 16.55% and a growth percent [8] of 16.59%. For the same molecule, the growth percent [9] was 23.09%, the growth percent [10] was 46.09% and the growth percent [11] was 58.86%. For the same molecule, the growth percent [12] was 4.86%, the growth percent [13] was 102.8% and the growth percent [14] was 33.07%. For the same molecule, the growth percent [15] was 57.15%, the growth percent [16] was 84.45% and the growth percent [17] was 59.92%. It also gave a growth percent ([18]; 48 h) of 44.34%.
`COc1ccc(/C=C/C(c2cc(OC)c(OC)c(OC)c2)n2cncn2)cc1O` (stereo not shown) [Compound 22b, (E)-5-(3-(1H-1,2,4-Triazol-1-yl)-3-(3,4,5-trimethoxyphenyl)prop-1-en-1-yl)-2-methoxyphenol] gave an IC50 [1] of 390 nM, a viability at 0.5 µM ([1]; 0.5 μM, 72 h, Figure 9C) of 70% and a viability at 1 µM ([1]; 72 h, Figure 9C, read-out: cell viability) of 30%. It also gave a viability at 1 µM ([1]; 72 h, read-out: viable cells) of 40%, a viability at 10 µM ([1]; 10 μM, 72 h, Figure 9C) of 20% and an IC50 ([1]; 72 h) of 385 ± 120 nM. The GI50 ([2]; 48 h) was 24.5 nM, the growth percent ([2]; 48 h) was −36.28% and the GI50 ([2]; Homo sapiens, HL-60, 48 h) was 24 nM. The GI50 ([3]; Homo sapiens, five-dose) was 6070 nM, the growth percent [3] was 59.45% and the GI50 ([4]; Homo sapiens, five-dose) was 5930 nM. It also gave a growth percent [4] of 62.21%, a GI50 ([5]; Homo sapiens, five-dose) of 3470 nM and a growth percent [5] of 41.50%. The IC50 [6, 19] was greater than 100000 nM, the growth percent [6] was 54.65% and the GI50 ([7]; Homo sapiens, NCI-H460, 48 h) was 42 nM. It also gave a GI50 ([7]; 48 h) of 42.3 nM, a growth percent ([7]; 48 h) of 13.26% and an IC50 ([8]; Homo sapiens, five-dose, read-out: IC50 (cell marked * in GI50 column) (converted)) of 3720 nM. For the same molecule, the growth percent [8] was 1.43%, the GI50 ([9]; Homo sapiens, five-dose) was 26.7 nM and the growth percent [9] was −4.58%. It also gave a GI50 ([10]; Homo sapiens, five-dose) of 51.1 nM, a growth percent [10] of 50.87% and a GI50 ([11]; Homo sapiens, five-dose) of 3620 nM. For the same molecule, the growth percent [11] was 59.08%, the GI50 ([12]; Homo sapiens, five-dose) was 26 nM and the growth percent [12] was 15.65%. The GI50 ([13]; Homo sapiens, five-dose) was 4480 nM, the growth percent [13] was 86.55% and the IC50 [14, 19] was greater than 100000 nM. For the same molecule, the growth percent [14] was −16.94%, the GI50 ([15]; Homo sapiens, five-dose) was 7190 nM and the growth percent [15] was 49.61%. For the same molecule, the GI50 ([16]; Homo sapiens, five-dose) was 21200 nM, the growth percent [16] was 41.24% and the IC50 [17, 19] was greater than 100000 nM. For the same molecule, the growth percent [17] was 54.20%, the GI50 ([18]; Homo sapiens, BT-549, 48 h) was 71 nM and the GI50 ([18]; 48 h) was 71.2 nM. The growth percent ([18]; 48 h) was 36.59%.
Molecule `COc1ccc(C2CC(n3ccnc3)c3cc(OC)c(OC)c(OC)c32)cc1O` (stereo not shown) [Compound 27a, 5-(3-(1H-Imidazol-1-yl)-5,6,7-trimethoxy-2,3-dihydro-1H-inden-1-yl)-2-methoxyphenol] has a growth percent ([2]; 48 h) of 83.57%, a growth percent [3] of 100.83% and a growth percent [4] of 97.37%. For the same molecule, the growth percent [5] was 91.50%, the growth percent [6] was 101.51% and the growth percent ([7]; 48 h) was 78.74%. For the same molecule, the growth percent [8] was 57.51%, the growth percent [9] was 89.80% and the growth percent [10] was 86.38%. For the same molecule, the growth percent [11] was 78.29%, the growth percent [12] was 57.06% and the growth percent [13] was 106.81%. It also gave a growth percent [14] of 70.77%, a growth percent [15] of 104.36% and a growth percent [16] of 101.23%. The growth percent [17] was 79.93% and the growth percent ([18]; 48 h) was 90.36%.
